Test results reported in US20230107642A1 (Erasca, Inc., priority 2020, published 2023).

Target: T1, K-Ras G12C (Homo sapiens, UniProt P01116, G12C)
T1 construct: This protein contained 188 amino acids in total, including an N-terminal 6-Histidine tag; made in house; host or cells: E. coli BL21
Assay: CAF assay (% CAF; method in Example 7, not in this part)
Type: binding

Row | SMILES | % CAF @ 10 uM, 1h (10 uM compound, 1 h incubation) [%] | % CAF @ 10 uM, 1h (10 uM, 1 h, Table 3) [%] | also measured
1 | C=CC(=O)N1C[C@H](C)N(c2nc(=O)n3c4c(c(-c5cc(Cl)c(F)cc5F)c(Cl)cc24)SC[C@@H]3CN2CCN(C3CC3)CC2)C[C@H]1C [Example 499, (3S)-7-((2S,5R)-4-acryloyl-2,5-dimethylpiperazin-1-yl)-9-chloro-10-(5-chloro-2,4-difluorophenyl)-3-((4-cyclopropylpiperazin-1-yl)methyl)-2H-[1,4]thiazino[2,3,4-ij]quinazolin-5(3H)-one] | 28 | – | –
2 | C=CC(=O)N1C[C@H](C)N(c2nc(=O)n3c4c(c(-c5cc(F)c(F)cc5F)c(Cl)cc24)SC[C@@H]3CN2CCC3(CC2)COC3)C[C@H]1C (atropisomer, axis not shown) [Example 484, (3S,10S)-3-((2-oxa-7-azaspiro[3.5]nonan-7-yl)methyl)-7-((2S,5R)-4-acryloyl-2,5-dimethylpiperazin-1-yl)-9-chloro-10-(2,4,5-trifluorophenyl)-2,3-dihydro-5H-[1,4]thiazino[2,3,4-ij]quinazolin-5-one] | 77.9 | – | –
3 | C=CC(=O)N1CCN(c2nc(=O)n3c4c(c(-c5cccc6c5CC(=O)N6)c(Cl)cc24)SCC3)[C@@H](C)C1 [Example 105, 7-((S)-4-acryloyl-2-methylpiperazin-1-yl)-9-chloro-10-(2-oxoindolin-4-yl)-2,3-dihydro-5H-[1,4]thiazino[2,3,4-ij]quinazolin-5-one] | – | 18.9 | –
4 | C=CC(=O)N1C[C@H](C)N(c2nc(=O)n3c4c(c(-c5cc(F)c(F)cc5F)c(C(F)(F)F)cc24)SC[C@@H]3CN2CCN(CC(F)F)CC2)C[C@H]1C [Example 443, (3S)-7-((2S,5R)-4-acryloyl-2,5-dimethylpiperazin-1-yl)-3-((4-(2,2-difluoroethyl)piperazin-1-yl)methyl)-9-(trifluoromethyl)-10-(2,4,5-trifluorophenyl)-2H-[1,4]thiazino[2,3,4-ij]quinazolin-5(3H)-one] | 48.2 | – | –
5 | C=CC(=O)N1[C@H](C)CN(c2nc(=O)n3c4c(c(-c5ccc(F)cc5)c(C(F)(F)F)cc24)SC[C@H](OC)C3)C[C@@H]1C [Example 584, (R)-8-((3S,5R)-4-acryloyl-3,5-dimethylpiperazin-1-yl)-11-(4-fluorophenyl)-3-methoxy-10-(trifluoromethyl)-3,4-dihydro-2H,6H-[1,4]thiazepino[2,3,4-ij]quinazolin-6-one] | 97 | – | –
6 | C=CC(=O)N1CCN(c2nc(=O)n3c4c(c(-c5c(F)cc(F)cc5F)c(C(F)(F)F)cc24)SCCC3)[C@@H](C)C1 [Example 455, (S)-8-(4-acryloyl-2-methylpiperazin-1-yl)-10-(trifluoromethyl)-11-(2,4,6-trifluorophenyl)-3,4-dihydro-2H,6H-[1,4]thiazepino[2,3,4-ij]quinazolin-6-one] | 21 | – | –
7 | C=CC(=O)N1CCN(c2nc(=O)n3c4c(c(-c5ccc(F)cc5F)c(Cl)cc24)SC[C@@H]3CN2CCN(CC(F)F)CC2)[C@@H](C)C1 [Example 356, (3S)-7-((S)-4-acryloyl-2-methylpiperazin-1-yl)-9-chloro-3-((4-(2,2-difluoroethyl)piperazin-1-yl)methyl)-10-(2,4-difluorophenyl)-2H-[1,4]thiazino[2,3,4-ij]quinazolin-5(3H)-one] | – | – | % CAF @ 10 μM, 1 h (10 μM, 1 h, Table 4): 95%
8 | C=CC(=O)N1CCN(c2nc(=O)n3c4c(c(-c5ccc(F)cc5F)c(Cl)cc24)SC[C@@H]3CC2CCN(CC(F)F)CC2)[C@@H](C)C1 [Example 414, (3S)-7-((S)-4-acryloyl-2-methylpiperazin-1-yl)-9-chloro-3-((1-(2,2-difluoroethyl)piperidin-4-yl)methyl)-10-(2,4-difluorophenyl)-2H-[1,4]thiazino[2,3,4-ij]quinazolin-5(3H)-one] | 92 | – | –
9 | C=CC(=O)N1CCN(c2nc(=O)n3c4c(c(-c5cc(Cl)c(F)cc5F)c(C(F)(F)F)cc24)SC[C@@H](OC)C3)CC1 [Example 582, (3S)-8-(4-acryloylpiperazin-1-yl)-11-(5-chloro-2,4-difluorophenyl)-3-methoxy-10-(trifluoromethyl)-3,4-dihydro-2H,6H-[1,4]thiazepino[2,3,4-ij]quinazolin-6-one] | 88 | – | –
10 | C=CC(=O)N1C[C@H](C)N(c2nc(=O)n3c4c(c(-c5cc(F)c(F)cc5F)c(Cl)cc24)SC[C@@H]3CC2CCN(C3CC3)CC2)C[C@H]1C [Example 475, (3S)-7-((2S,5R)-4-acryloyl-2,5-dimethylpiperazin-1-yl)-9-chloro-3-((1-cyclopropylpiperidin-4-yl)methyl)-10-(2,4,5-trifluorophenyl)-2H-[1,4]thiazino[2,3,4-ij]quinazolin-5(3H)-one] | 49.8 | – | –
11 | C=CC(=O)N1C[C@H](C)N(c2nc(=O)n3c4c(c(-c5ccc(F)cc5)c(C(F)(F)F)cc24)SC[C@@H]3COC)C[C@H]1C [Example 497, (S)-7-((2S,5R)-4-acryloyl-2,5-dimethylpiperazin-1-yl)-10-(4-fluorophenyl)-3-(methoxymethyl)-9-(trifluoromethyl)-2H-[1,4]thiazino[2,3,4-ij]quinazolin-5(3H)-one] | 85.1 | – | –
12 | C=CC(=O)N1CCN(c2nc(=O)n3c4c(c(-c5ccc(F)cc5F)c(Cl)cc24)SC[C@H]3CC2CCN(CC(F)F)CC2)[C@@H](C)C1 [Example 69, (3R)-7-((S)-4-acryloyl-2-methylpiperazin-1-yl)-9-chloro-3-((1-(2,2-difluoroethyl)piperidin-4-yl)methyl)-10-(2,4-difluorophenyl)-2,3-dihydro-5H-[1,4]thiazino[2,3,4-ij]quinazolin-5-one] | – | 96 | –
13 | C=CC(=O)N1CCN(c2nc(=O)n3c4c(c(-c5ccc(F)cc5F)c(Cl)cc24)SC[C@@H]3CC2CCN(C3COC3)CC2)[C@@H](C)C1 [Example 415, (3S)-7-((S)-4-acryloyl-2-methylpiperazin-1-yl)-9-chloro-10-(2,4-difluorophenyl)-3-((1-(oxetan-3-yl)piperidin-4-yl)methyl)-2H-[1,4]thiazino[2,3,4-ij]quinazolin-5(3H)-one] | 85.4 | – | –
14 | C=CC(=O)N1C2CC(=O)CC1CN(c1nc(=O)n3c4c(c(-c5ccc(F)cc5F)c(Cl)cc14)SCC3)C2 [Example 138, 7-(9-acryloyl-7-oxo-3,9-diazabicyclo[3.3.1]nonan-3-yl)-9-chloro-10-(2,4-difluorophenyl)-2,3-dihydro-5H-[1,4]thiazino[2,3,4-ij]quinazolin-5-one] | – | 95.8 | –
15 | O=C1CC2CN(c3nc(=O)n4c5c(c(-c6ccc(F)cc6F)c(C(F)(F)F)cc35)SCC4)CC(C1)N2C(=O)/C=C/C(F)F [Example 439, (E)-7-(9-(4,4-difluorobut-2-enoyl)-7-oxo-3,9-diazabicyclo[3.3.1]nonan-3-yl)-10-(2,4-difluorophenyl)-9-(trifluoromethyl)-2,3-dihydro-5H-[1,4]thiazino[2,3,4-ij]quinazolin-5-one] | 97 | – | –

More lines, main results first:

Row | % CAF @ 10 uM, 1h (10 uM compound, 1 h incubation) [%] | % CAF @ 10 uM, 1h (10 uM, 1 h, Table 3) [%] | SMILES | also measured
16 | – | 94.5 | C=C(F)C(=O)N1CCN(c2nc(=O)n3c4c(c(-c5ccc(F)cc5F)c(Cl)cc24)SCC3)C[C@H]1C#N [Example 125, (2S)-4-(9-chloro-10-(2,4-difluorophenyl)-5-oxo-2,3-dihydro-5H-[1,4]thiazino[2,3,4-ij]quinazolin-7-yl)-1-(2-fluoroacryloyl) piperazine-2-carbonitrile] | –
17 | 97 | – | C=CC(=O)N1CCN(c2nc(=O)n3c4c(c(-c5cc(Cl)c(F)cc5F)c(Cl)cc24)SC[C@@H](OC)C3)CC1 [Example 543, (3S)-8-(4-acryloylpiperazin-1-yl)-10-chloro-11-(5-chloro-2,4-difluorophenyl)-3-methoxy-3,4-dihydro-2H,6H-[1,4]thiazepino[2,3,4-ij]quinazolin-6-one] | –
18 | – | 86.4 | C=CC(=O)N1CCN(c2nc(=O)n3c4c(c(-c5ccc(F)c(Cl)c5)c(Cl)cc24)SCC3)[C@@H](C)C1 [Example 98, (S)-7-(4-acryloyl-2-methylpiperazin-1-yl)-9-chloro-10-(3-chloro-4-fluorophenyl)-2,3-dihydro-5H-[1,4]thiazino[2,3,4-ij]quinazolin-5-one] | –
19 | 78.5 | – | C=CC(=O)N1CCN(c2nc(=O)n3c4c(c(-c5ccc(F)c6cccnc56)c(Cl)cc24)SCC3)[C@@H](C)C1 [Example 441, 7-((S)-4-acryloyl-2-methylpiperazin-1-yl)-9-chloro-10-(5-fluoroquinolin-8-yl)-2,3-dihydro-5H-[1,4]thiazino[2,3,4-ij]quinazolin-5-one] | –
20 | 90 | – | C=CC(=O)N1CCN(c2nc(=O)n3c4c(c(-c5ccc(F)cc5F)c(C(F)(F)F)cc24)SC[C@@H](O)C3)[C@@H](C)C1 [Example 431, (3S)-8-((S)-4-acryloyl-2-methylpiperazin-1-yl)-11-(2,4-difluorophenyl)-3-hydroxy-10-(trifluoromethyl)-3,4-dihydro-2H,6H-[1,4]thiazepino[2,3,4-ij]quinazolin-6-one] | –
21 | 96 | – | C=CC(=O)N1CCN(c2nc(=O)n3c4c(c(-c5ccc(F)cc5F)c(Cl)cc24)SC[C@@H](OC)C3)[C@@H](C)C1 [Example 487, (3S)-8-((S)-4-acryloyl-2-methylpiperazin-1-yl)-10-chloro-11-(2,4-difluorophenyl)-3-methoxy-3,4-dihydro-2H,6H-[1,4]thiazepino[2,3,4-ij]quinazolin-6-one] | –
22 | – | 89.2 | C=CC(=O)N1CCN(c2nc(=O)n3c4c(c(-c5ccc(F)cc5F)c(Cl)cc24)SCC3)[C@H](CS(C)(=O)=O)C1 [Example 188, 7-((S)-4-acryloyl-2-((methylsulfonyl)methyl)piperazin-1-yl)-9-chloro-10-(2,4-difluorophenyl)-2,3-dihydro-5H-[1,4]thiazino[2,3,4-ij]quinazolin-5-one] | –
23 | – | 93.8 | C=CC(=O)N1CCN(c2nc(=O)n3c4c(c(-c5cccc(Cl)c5F)c(Cl)cc24)SCC3)[C@@H](C)C1 [Example 174, 7-((S)-4-acryloyl-2-methylpiperazin-1-yl)-9-chloro-10-(3-chloro-2-fluorophenyl)-2,3-dihydro-5H-[1,4]thiazino[2,3,4-ij]quinazolin-5-one] | –
